This is an account of results in patent publication US20080014199A1, “Assessing Cancer And Vimentin” (MAYO FOUNDATION FOR MEDICAL EDUCATION AND RESEARCH, priority 2006, published 2008).

Entries after “also recorded” stand apart in the source; their conditions may differ. No end group written: not given here. fluorescein = fluorescein label conjugated to the peptide

One test relates to CLL B cells. In words: Immunofluorescence staining of CLL B cell cytospins with FPSAHFL-displaying phage or fluorescein labelled polypeptide. Type of test: binding, human. The following applies: phage plus fluorescent anti-phage antibodies or fluorescein-labelled polypeptide. An excerpt:
FIG. 2 contains fluorescence photomicrographs showing binding of the FPSAHFL (SEQ ID NO:2) polypeptide to CLL B cells. CLL B cells were placed on slides by cytospining and were stained with phages displaying the FPSAHFL (SEQ ID NO:2) polypeptide and FITC labeled anti-phage antibody (A and D) or were stained directly with fluorescein conjugated FPSAHFL (SEQ ID NO:2) polypeptide (B, C, and E).
Binding of the FPSAHFL (SEQ ID NO:2) polypeptide to CLL B cells was investigated using immunofluorescence. Cytospins of 10^5 CLL B cells (see, Example 1) were prepared and incubated for 20 minutes at room temperature with phages displaying FPSAHFL (SEQ ID NO:2; 10^8 pfu). The cells were then washed twice with PBS and incubated for 15 minutes at room temperature with 10 μg of mouse anti-M13 phage antibodies (New England Biolabs). The cells were stained for 15 minutes at room temperature with 2 μg of fluorescein isothiocyanate (FITC) labelled secondary anti-mouse antibodies (Vector Laboratories Inc, Burlingame, Calif., USA). Non-displaying M13 phages were used as a control (New England Biolabs) and co-staining with 4′-6-Diamidino-2-phenylindole (DAPI) was used to identify cells. […] The purity of the polypeptide preparation (>99.9%) was assessed by mass spectrometry and high performance liquid chromatography using internal standards.

The target in test [1] is T1, vimentin (Homo sapiens, UniProt P08670).
T1 construct: CLL B cell lysates were immunoprecipitated using phage and anti-phage antibodies; endogenous in cells; host or cells: primary CLL B cells (patient leukemic cells), total protein lysate
In words: Immunoprecipitation of CLL B cell lysates with FPSAHFL phage and anti-phage antibodies, Western blotting, nano LC-MS/MS target identification. The format is binding. As to the method:
(§1) To identify FPSAHFL (SEQ ID NO:2) polypeptide targets, CLL B cell lysates were immunoprecipitated using phage and anti-phage antibodies. Total protein extracts were prepared from primary leukemic cells (see, Example 1) by lysing cells in cold lysis buffer (30 mM Tris-HCl, pH 7.4; 150 mM NaCl; 1% glycerol (v/v); 1% Triton X-100 (v/v); and 2 mM EDTA) in the presence of phosphatase inhibitors (100 mM NaF, 10 mM Na4P2O4, 1 mM Na2VO4), and protease inhibitors (10 μg/mL Leupeptin, 10 μg/mL Pepstatin A, and 1 mM phenylmethylsulfonyl fluoride (PMSF)). After centrifugation to remove cell debris, protein extracts were immunoprecipitated overnight at 4° C. on a rotator with phages displaying FPSAHFL (SEQ ID NO:2; 10^11 pfu[…]), anti-M13 phage antibodies and 40 μL goat anti-mouse IgG-sepharose 4B beads (Zymed, San Francisco, Calif., USA), according to the manufacturer's instructions. The beads were washed three times with lysis buffer, resuspended into a loading buffer and subjected to SDS-PAGE (5%-15%) under reducing conditions. The polypeptide was visualized by Coomassie blue or silver staining. To confirm that the immunoprecipitated polypeptide was indeed the target for FPSAHFL (SEQ ID NO:2) phage, Western blotting was performed using staining with FPSAHFL (SEQ ID NO:2) phage and anti-M13 phage antibodies. Non-displaying phage were used as a control. […]

The next test relates to unmutated CLL B cells. In words: Subtraction biopanning with phage display polypeptide library on unmutated versus mutated CLL B cells. Type of test: binding, human. As to the method: Phages displaying IgVH mutational status-specific polypeptides were isolated. 10^11 plaque forming units (pfu) of PDPL Ph.D.-7 (New England Biolabs, Ipswich, Mass.) were added to 10^6 unmutated CLL B cells suspended in 1 mL of phosphate buffered saline (PBS) containing 0.5% bovine serum albumin (BSA), and the mixture was incubated at room temperature for 1 hour with gentle rocking (FIG. 1A). The cells with attached phages were spun down and washed three times with PBS containing 0.5% BSA (FIG. 1B). The attached phages were then eluted for 20 minutes by adding 1 mL of elution buffer (1% BSA, 0.2 M Glycine-HCl, pH 2.2; FIG. 1C). The elution buffer was neutralized with 0.15 mL of 1 M Tris-HCl (pH 9.1). The eluted phages were precipitated by adding 0.2 mL of a solution containing 20% (w/v) polyethylene glycol 8,000 (Sigma, Saint Louis, Mo.) and 2.5 M NaCl. The eluted phages were then added to a suspension of 10^6 mutated CLL B cells in PBS with 0.5% BSA and incubated with gentle rocking for 40 minutes. The cells with bound phages (FIG. 1D) were spun down, leaving the supernatant containing unbound phages. This latter step was repeated four times to ensure complete subtraction of phages binding to mutated CLL B cells. The unbound phages in the supernatant were titered, amplified and purified as described elsewhere (Nowakowski et al., Stem Cells, 22(6):1030-8 (2004); FIG. 1E). […]

Test [2] deals with T2, vimentin (human (CLL patients), UniProt P08670 2-466).
T2 construct: Endogenous protein from total protein extracts of CLL patient cells; It ran on SDS-PAGE under reducing conditions for the Western blot; also called 56 kDa band; immunoprecipitated polypeptide
In words: immunoprecipitation from CLL B cell lysate with phage and anti-M13 antibodies; Western blot with phage. As to the method: as §1, with “Na₄P₂O₄,” for “Na4P2O4,”, “Na₂VO₄),” for “Na2VO4),”, “10¹¹” for “10^11”
(In general: Immunoblotting shows a protein as a band on a membrane.)

T1 sequence (P08670 whole entry): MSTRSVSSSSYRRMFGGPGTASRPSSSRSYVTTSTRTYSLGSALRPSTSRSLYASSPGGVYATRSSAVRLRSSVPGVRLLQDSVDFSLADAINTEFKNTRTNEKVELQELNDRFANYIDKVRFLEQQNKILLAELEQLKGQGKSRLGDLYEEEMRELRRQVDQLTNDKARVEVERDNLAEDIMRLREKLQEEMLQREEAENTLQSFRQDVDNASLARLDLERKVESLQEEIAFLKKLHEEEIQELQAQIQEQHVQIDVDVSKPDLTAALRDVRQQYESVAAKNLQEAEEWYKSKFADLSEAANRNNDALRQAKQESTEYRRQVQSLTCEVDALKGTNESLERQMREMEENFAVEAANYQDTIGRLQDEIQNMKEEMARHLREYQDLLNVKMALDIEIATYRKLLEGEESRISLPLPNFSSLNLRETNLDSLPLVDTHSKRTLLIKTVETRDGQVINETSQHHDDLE
T2 sequence (P08670 2-466 limits assumed): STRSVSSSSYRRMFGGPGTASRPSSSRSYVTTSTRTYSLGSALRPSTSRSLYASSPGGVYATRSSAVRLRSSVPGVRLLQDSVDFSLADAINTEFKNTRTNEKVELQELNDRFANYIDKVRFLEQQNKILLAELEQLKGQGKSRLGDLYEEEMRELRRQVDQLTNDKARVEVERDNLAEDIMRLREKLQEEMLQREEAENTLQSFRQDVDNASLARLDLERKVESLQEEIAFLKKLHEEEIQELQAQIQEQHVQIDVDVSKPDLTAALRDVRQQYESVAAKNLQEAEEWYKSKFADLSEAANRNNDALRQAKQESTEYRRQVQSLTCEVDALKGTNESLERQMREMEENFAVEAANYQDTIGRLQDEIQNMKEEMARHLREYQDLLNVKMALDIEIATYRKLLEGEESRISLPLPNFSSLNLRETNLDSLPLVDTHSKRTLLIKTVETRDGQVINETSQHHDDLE

As to “FPSAHFL (fluorescein-FPSAHFL) [also synthesized and fluorescein labelled at the N terminus]”, the “Cellular localization of binding (pattern of staining)” value with CLL B cells is given as “localized within the cytoplasm; also recorded: cytoplasmic pattern of staining”. For the same molecule, the “Target of the polypeptide identified” value in the test with vimentin [1] (in-gel trypsin digestion, nano LC-MS/MS, Mascot and Sequest) is “vimentin”. The “Band immunoprecipitated from CLL polypeptides” value in the test with vimentin [1] (phage bearing the polypeptide and anti-phage antibodies, binding confirmed by Western blotting) worked out at 56 kDa. The “Percentage of sequenced single phage colonies encoding the polypeptide” value in the test on unmutated CLL B cells (fourth round of biopanning) is listed as 34%; in the test with unmutated CLL B cells (third round of subtraction biopanning) it was 20%.

B1: phage displaying the FPSAHFL (SEQ ID NO:2) polypeptide (peptide, not shown: large carriers)
peptide: FPSAHFL
modifications: also: displayed on M13 phage coat protein, fusion end not given here
notes: 7-mer selected from the Ph.D.-7 phage display library
Regarding B1, the binding result with vimentin [2] was “binds”.
